From patent US20150126507A1, “COMPOUNDS TO TREAT HEARING LOSS” (Fate Therapeutics, Inc., priority 2013, published 2015) come the findings set out here.

A value given as a limit tells only on which side of the number the result lay.

B1: AHR siRNA: pool of four siRNA sequences against human AHR (Thermo Scientific) (nucleic acid)
guide 1: GCAAGUUAAUGGCAUGUUU
guide 2: GAACUCAAGCUGUAUGGUA
guide 3: GCACGAGAGGCUCAGGUUA
guide 4: GCAACAAGAUGAGUCUAUU
modifications: pool of four siRNAs, further chemistry not given here

The first data set addresses T1, AHR (Homo sapiens, UniProt P35869).
T1 construct: HEK293 cells were transduced with a lentiviral vector containing a concatamer of Atoh1 enhancer A and B elements; endogenous in cells; host or cells: HEK293-derived Atoh1 reporter cell line
T1 sequence (P35869 11-848): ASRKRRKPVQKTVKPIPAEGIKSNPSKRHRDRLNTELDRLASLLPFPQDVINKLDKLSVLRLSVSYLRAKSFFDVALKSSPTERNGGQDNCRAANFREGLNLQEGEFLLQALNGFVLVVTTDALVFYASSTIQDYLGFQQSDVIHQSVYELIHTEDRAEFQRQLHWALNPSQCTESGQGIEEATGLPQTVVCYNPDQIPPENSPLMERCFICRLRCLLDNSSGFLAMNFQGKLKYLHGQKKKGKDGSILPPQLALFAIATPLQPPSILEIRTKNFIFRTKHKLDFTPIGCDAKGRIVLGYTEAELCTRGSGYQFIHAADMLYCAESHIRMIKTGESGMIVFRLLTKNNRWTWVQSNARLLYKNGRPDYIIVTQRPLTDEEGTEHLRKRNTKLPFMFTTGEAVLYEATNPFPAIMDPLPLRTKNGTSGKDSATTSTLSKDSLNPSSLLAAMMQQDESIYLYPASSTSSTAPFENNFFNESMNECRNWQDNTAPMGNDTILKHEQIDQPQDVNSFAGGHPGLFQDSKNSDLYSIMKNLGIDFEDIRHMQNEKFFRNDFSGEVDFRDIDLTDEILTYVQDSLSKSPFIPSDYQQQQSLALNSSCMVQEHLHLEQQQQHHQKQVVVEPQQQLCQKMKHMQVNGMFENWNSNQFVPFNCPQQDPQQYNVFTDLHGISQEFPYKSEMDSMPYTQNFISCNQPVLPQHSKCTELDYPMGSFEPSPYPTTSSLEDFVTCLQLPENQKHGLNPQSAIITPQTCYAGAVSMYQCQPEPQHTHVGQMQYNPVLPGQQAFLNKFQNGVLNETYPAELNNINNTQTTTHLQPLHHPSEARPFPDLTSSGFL
As to the kind of experiment: AHR siRNA analysis in Atoh1 reporter cell line, luciferase assay and qRT-PCR. The format is cell-based. The settings on record: 75 nM siRNA, 5 μM Compound 4 for 48 hours, luciferase assay. As to the method:
An siRNA analysis was used to determine if AHR is required for the Atoh1-inducing activity of Compound 4. One day before transfection, the Atoh1 reporter cell line was plated at 1.5×10^5 cells/well in a 24-well plate. The cells were transfected with 75 nM on-target plus human AHR siRNA SMART pool or Non-target pool using DharmaFECT1 (Thermo Scientific). AHR siRNA sequences in the SMART pool were GCAAGUUAAUGGCAUGUUU, GAACUCAAGCUGUAUGGUA, GCACGAGAGGCUCAGGUUA, and GCAACAAGAUGAGUCUAUU. Mock-transfected cells served as an additional negative control. 16 hours after transfection, media were replaced with fresh complete medium containing 5 μM Compound 4 or DMSO. After 48 hours of treatment, cells were analyzed by luciferase assay and qRT-PCR.
AHR siRNA reduced AHR expression by 69%, while the control siRNA was without effect. […] Results are expressed in FIGS. 6A and 6B as the average±S.D. for triplicate wells. […] See, e.g., Ben-Arie, et al., Human Mol. Genetics 5(9):1207-1216 (1996).
On to B1, for which the “reduction of Compound 4-mediated Atoh1 reporter activity” value is 54%.

The data set is the same for the next values; noted with them: 75 nM siRNA, qRT-PCR.
B1: the “reduction of AHR expression” value stood at 69%.

The test system of a further data set is Atoh1 enhancer reporter in HEK293 cells. As to the kind of experiment: Atoh1 reporter cell line, firefly luciferase normalized to renilla luciferase. The format is cell-based. The settings on record: Atoh1 reporter cell line treated with AHR agonists for 2 days. As to the method: FIG. 2. Dose response data for selected hits. Atoh1 reporter cells plated in 384 well plates were treated with test compounds or vehicle controls for 2 days. Firefly luciferase signal was measured and normalized to the renilla luciferase signal. Results from duplicate wells (circles and triangles) are expressed relative to normalized controls treated with DMSO.
A reporter cell line expressed in HEK293 cells in which Atoh1 enhancer elements flanked a minimal promoter driving firefly luciferase expression was created. Dose response data was generated in the reporter cell line. Atoh1 reporter cells plated in […] plates were treated with test compounds or vehicle controls for 2 days. Firefly luciferase signal was measured and normalized to the renilla luciferase signal.
For high-throughput screening, HEK293 cells were transduced with a lentiviral vector containing a concatamer of Atoh1 enhancer A and B elements, the Promega minP minimal promoter, firefly luciferase coding sequence and hygromycin selectable marker. After selection, the cells were transduced with a second lentiviral vector containing the EF1α constitutive promoter, Renilla luciferase and puromycin selectable marker. A clonal derivative expressing both transgenes was expanded and banked for screening.
A screening assay was done by plating 8000 cells/well in 384 well plates, and treating for 48 hours with 1 and 10 μM test compound in DMSO, vehicle control, or the GSK-3B inhibitor, BIO, as a positive control. Firefly and Renilla luciferase were measured sequentially using Dual-Glo (Promega) with an Envision multi-label plate reader (Perkin Elmer). Data were analyzed after normalizing firefly luciferase signals to Renilla luciferase signals. A primary screen of 50,000 diverse compounds identified 140 hits. […] 10 of these 41 hits were selected for further analysis
To confirm activity in the 10 selected hits, the test compounds were reassayed at 3.3×10^−9, 1×10^−8, 3.3×10^−8, 1×10^−7, 3.3×10^−7, 1×10^−6, 3.3×10^−6 and 1×10^−5 molar concentrations. […] Results from duplicate wells (circles and triangles) are expressed relative to normalized controls treated with DMSO.
`COC(=O)c1csc(C(=O)c2c[nH]c3ccccc23)n1` [ITE, reference compound]: the Atoh1 reporter activity result is on record as “stimulated Atoh1 reporter activity”.
Still for that read-out and setting: with `Br.Cc1ccc(C(=O)Cn2c3c(sc2=N)CCCC3)cc1` [Pfithrin-α-hydrobromide, reference compound] the entry was “stimulated Atoh1 reporter activity”; with `CN1C(=O)/C(=C2\Nc3ccccc3\C2=N/O)c2ccc(Br)cc21` [MeBIO, reference compound], “stimulated Atoh1 reporter activity”.

The same data set, now with this note: Homo sapiens, HEK293, 48 h, Atoh1 reporter HEK293 cells, treated 2 days, dose response; read-out: ED50 (the source's name).
As to `CC(=O)c1sc(NC(=O)c2cc3ccccc3o2)nc1C` [Compound 39], the EC50 turned out to be 0.5 µM.
As for `Cc1c(C(=O)Nc2nc(-c3ccccc3)cs2)oc2ccccc12` [Compound 6], the EC50 was found to be 1.3 µM.
Turning to `Cc1c(C(=O)Nc2nc3ccc(Cl)cc3s2)oc2ccccc12` [Compound 12], the EC50 stood at 0.6 µM.
Still for that read-out and setting: in the case of `COc1ccc2oc(C(=O)Nc3nc(CN4CCOCC4)cs3)c(C)c2c1` [Compound 21] it was 0.9 µM; in that of `Cc1c(C(=O)N(C)c2nccs2)oc2ccccc12` [Compound 1, N,3-dimethyl-N-(thiazol-2-yl)benzofuran-2-carboxamide], 1.6 µM; in that of `CSCc1c(C(=O)Nc2nc(C)cs2)oc2ccccc12` [Compound 28], 1.3 µM.
On the same count and under the same terms, in the case of `CSCc1c(C(=O)Nc2nccs2)oc2ccccc12` [Compound 22] it was 0.5 µM; in that of `Cc1c(C(=O)Nc2nccs2)oc2ccc(Cl)cc12` [Compound 41], 0.4 µM.
Consider `O=C(Nc1nc2c(s1)CCCC2)c1cc2ccccc2o1` [Compound 17], for which the EC50 is 0.4 µM.
Still for that read-out and setting: in the case of `CCOc1ccc2oc(C(=O)Nc3nccs3)c(C)c2c1` [Compound 23] it was 0.5 µM; in that of `COc1ccc2nc(NC(=O)c3oc4ccccc4c3C)sc2c1` [Compound 11], 0.7 µM.
Same read-out and setting: with `Cc1c(C(=O)Nc2nccs2)oc2c(Cl)cccc12` [Compound 19] the figure was 0.7 µM; with `CCOC(=O)c1sc(NC(=O)c2oc3ccccc3c2C)nc1C` [Compound 5], 0.7 µM.
For the molecule `CCc1nc(NC(=O)c2oc3c(F)cccc3c2C)sc1C` [Compound 32], the EC50 was found to be 1 µM.
Still for that read-out and setting: in the case of `Cc1c(C(=O)Nc2nccs2)oc2ccc(Br)cc12` [Compound 36] it was 0.8 µM.
On to `COc1ccc2oc(C(=O)Nc3nc(C)cs3)c(C)c2c1` [Compound 35], for which the EC50 was 0.5 µM.
Same read-out and setting: in the case of `COCc1c(C(=O)Nc2nccs2)oc2ccccc12` [Compound 25] it was 1.7 µM; in that of `Cc1cnc(NC(=O)c2oc3ccc(Br)cc3c2C)s1` [Compound 33], 0.4 µM.
In the case of `Cc1c(C(=O)Nc2nccs2)oc2ccc(F)cc12` [Compound 31], the EC50 turned out to be 0.6 µM.
On the same count and under the same terms, with `O=C(Nc1nccs1)c1cc2cc(Br)ccc2o1` [Compound 30] the figure was over 3 µM.
The same measure, in the same setting: in the case of `Cc1c(C(=O)Nc2nccs2)oc2c1ccc1ccccc12` [Compound 18] it was over 3 µM; in that of `CN(C(=O)c1cc2ccccc2o1)c1nccs1` [Compound 2, N-methyl-N-(thiazol-2-yl)benzofuran-2-carboxamide], 0.7 µM.
On the same count and under the same terms, in the case of `COc1cccc2cc(C(=O)Nc3ncc(C)s3)oc12` [Compound 15] it was 1 µM; in that of `COc1cccc2cc(C(=O)Nc3nccs3)oc12` [Compound 16], 2.7 µM; in that of `Cc1csc(NC(=O)c2oc3ccc(Br)cc3c2C)n1` [Compound 34], 1.6 µM.
On to `O=C(Nc1nccs1)c1oc2ccccc2c1COc1ccccc1` [Compound 24], for which the EC50 worked out at 0.7 µM.
The same measure, in the same setting: with `Cc1nc(NC(=O)c2oc3ccccc3c2C)sc1C` [Compound 3] the figure was 2.7 µM; with `Cc1csc(N(C(=O)c2cc3ccccc3o2)c2ccccc2)n1` [Compound 26], over 3 µM.
Still for that read-out and setting: with `Cc1csc(NC(=O)c2oc3ccc(F)cc3c2C)n1` [Compound 37] the figure was 2.3 µM; with `Cc1cnc(NC(=O)c2cc3ccccc3o2)s1` [Compound 27], 0.2 µM; with `Cc1c(C(=O)Nc2nc(S(C)(=O)=O)cs2)oc2ccccc12` [Compound 8], 1.1 µM.
Turning to `Cc1c(C(=O)Nc2nc(C(C)(C)C)cs2)oc2ccccc12` [Compound 7], the EC50 was 1.3 µM.
Same read-out and setting: with `Cc1csc(NC(=O)c2oc3c(Cl)cccc3c2C)n1` [Compound 38] the figure was over 3 µM; with `Cc1nc(NC(=O)c2oc3ccccc3c2C)sc1C(=O)N(C)C` [Compound 9], 1.7 µM.
Same read-out and setting: with `O=C(Nc1nccs1)c1cc2ccccc2o1` [Compound 13] the figure was 0.4 µM; with `CN(C(=O)c1cc2cccc(Br)c2o1)c1nccs1` [Compound 29], 1.4 µM.

Another data set has as its system P5 rat cochlear explants. As to the kind of experiment: Tobramycin treatment of cochlear explants, hair cell and supporting cell marker mRNA. The format is cell-based. As to conditions: tobramycin 1 mM, 3 days. Here is the method: The ten selected hits of Example 43 were assayed for the ability to induce Atoh1 expression in primary cultured cochlear explants from the neonatal rat. Postnatal day 5 (P5) rat cochlear explants were cultured with the ototoxic aminoglycoside antibiotic, tobramycin (1 mM), for 3 days prior to drug testing, as an in vitro model of drug-induced hearing loss. […] See, e.g., Ruedi, et al., Larynoscope 62:333-357 (1952). After the 3 day tobramycin pretreatment, the cochlear explants were cultured with the compounds of Example 43 or DMSO vehicle for an additional 2 days. Atoh1 expression levels, measured by qRT-PCR and normalized to ribosomal 18S expression, after hit compound treatments are shown in FIG. 3.
`NC[C@H]1O[C@H](O[C@H]2[C@H](O)[C@@H](O[C@H]3O[C@H](CO)[C@@H](O)[C@H](N)[C@H]3O)[C@H](N)C[C@@H]2N)[C@H](N)C[C@@H]1O` [tobramycin]: the “Sox2 mRNA (supporting cell marker)” value is listed as “without reducing”, the “reduction of Atoh1 mRNA level” value is “more than 80%” and the “reduction of MYO7A mRNA level” value was “more than 80%”.
